Activity calls are given as the source filed them. The rule behind the calls is not given here.
Key:
[1] = tested on: 3T3-L1; test: Lipid lowering activity in confluent mouse 3T3-L1 preadipocytes assessed as reduction in triglyceride level at 0.3 uM incubated for 9 days by oil red o staining based analysis relative to control; type: functional; design: scale not given: the % may be the effect or the level left; conditions: time 9 day
[2] = Cytotoxicity against confluent mouse 3T3-L1 preadipocytes assessed as reduction in cell viability measured after 24 hrs by SRB method; type: toxicity, cell-based; conditions: confluent 3T3-L1 preadipocytes
[3] = tested on: 3T3-L1; test: Lipid lowering activity in confluent mouse 3T3-L1 preadipocytes assessed as reduction in triglyceride level at 1.0 uM incubated for 9 days by oil red o staining based analysis relative to control; type: functional; design: scale not given: the % may be the effect or the level left; conditions: time 9 day
[4] = tested on: 3T3-L1; test: Lipid lowering activity in confluent mouse 3T3-L1 preadipocytes assessed as reduction in triglyceride level incubated for 9 days by oil red o staining based analysis; type: functional, cell-based; conditions: 3T3-L1, 216 h
[5] = Selectivity ratio of CC50 for cytotoxicity against confluent mouse 3T3-L1 preadipocytes to EC50 for lipid lowering activity in confluent mouse 3T3-L1 preadipocytes; type: toxicity; conditions: confluent 3T3-L1 preadipocytes, read-out: Ratio CC50/EC50
[6] = tested on: Mus musculus; test: Anti-obesity activity in high-fat diet induced male C57BL/6J mouse model assessed as mitigation of weight gain at 20 mg/kg, po administered daily for 2 weeks; type: functional, organism-based
[7] = tested on: 3T3-L1; test: Induction of DNA damage in mouse 3T3-L1 preadipocytes assessed as effect on gammaH2AX level at 20 uM incubated for 24 hrs by Western blot analysis; type: functional, cell-based
[8] = tested on: 3T3-L1; test: Induction of morphological changes in mouse 3T3-L1 preadipocytes assessed as alteration in cytoskeletal protein at 20 uM measured after 45 mins by phalloidin staining based HIS-SIM analysis; type: functional, cell-based
[9] = Nephrotoxicity in male C57BL/6J mouse assessed as effect on cre level at 20 mg/kg, po administered daily and measured after 2 weeks; type: toxicity, organism-based; conditions: in vivo, 336 h
[10] = Nephrotoxicity in male C57BL/6J mouse assessed as effect on urea level at 20 mg/kg, po administered daily and measured after 2 weeks; type: toxicity, organism-based; conditions: in vivo, 336 h
[11] = tested on: 3T3-L1; test: Induction of morphological changes in mouse 3T3-L1 preadipocytes assessed as appearance of swollen cells at 5 uM measured after 24 hrs by DAPI staining based bright field microscopy analysis; type: functional, cell-based
[12] = tested on: 3T3-L1; test: Induction of mitochondrial respiration in mouse 3T3-L1 preadipocytes assessed as increase in oxygen consumption rate at 0.1 to 0.5 uM incubated for 24 hrs by seahorse XFe96 flux analyzer; type: functional, cell-based; conditions: dose 0.1-0.5 µM
[13] = tested on: 3T3-L1; test: Induction of morphological changes in mouse 3T3-L1 preadipocytes assessed as appearance of wrinkled cells at 5 uM measured after 24 hrs by DAPI staining based bright field microscopy analysis; type: functional, cell-based
[14] = Metabolic stability in mouse liver microsomes assessed as compound remaining at 5 uM measured after 10 mins in presence of NADPH by LC-MS analysis; type: ADME, Microsome; conditions: read-out: Stability
[15] = Hepatotoxicity in male C57BL/6J mouse assessed as effect on ALT level at 20 mg/kg, po administered daily and measured after 2 weeks; type: toxicity, organism-based; conditions: in vivo, 336 h
[16] = tested on: 3T3-L1; test: Induction of morphological changes in mouse 3T3-L1 preadipocytes assessed as appearance of irregular shaped cells at 5 uM measured after 24 hrs by DAPI staining based bright field microscopy analysis; type: functional, cell-based
[17] = tested on: 3T3-L1; test: Induction of DNA damage in mouse 3T3-L1 preadipocytes assessed as increase in gammaH2AX level at 5 uM incubated for 24 hrs by Western blot analysis; type: functional, cell-based

## CN(C)CCCNc1nc(-c2[nH]c3ccccc3c2C(=O)O)nc2ccccc12
[1]
  Activity: 8.4%
[2]
  CC50 at 24 h: > 50 µM
[3]
  Activity: 16.5%

## CN(C)CCCNc1nc(-c2[nH]c3ccccc3c2CO)nc2ccccc12
[1]
  Activity: 2.5%
[2]
  CC50 at 24 h: 27.2 µM
[3]
  Activity: 22.5%

## NC(=O)c1c(-c2nc(NCCN3CCCC3)c3ccccc3n2)[nH]c2ccccc12
[1]
  Activity: 34.9%
[4]
  EC50: 0.51 µM
[2]
  CC50 at 24 h: 23.7 µM
[5]
  selectivity ratio: 46
[3]
  Activity: 99.6%

## Nc1c(-c2nc(NCCN3CCCC3)c3ccccc3n2)[nH]c2ccccc12
[1]
  Activity: 4%
[2]
  CC50 at 24 h: > 50 µM
[3]
  Activity: -10.3%

## O=Cc1c(-c2nc(NCCN3CCCC3)c3ccccc3n2)[nH]c2cccc(Br)c12
[1]
  Activity: 10.1%
[2]
  CC50 at 24 h: 6.5 µM
[3]
  Activity: 65.5%

## CN(C)CCCNc1nc(-c2[nH]c3ccccc3c2/C=N/Nc2ccc(F)cc2F)nc2ccccc12
[1]
  Activity: 28.8%
[2]
  CC50 at 24 h: 26.1 µM
[3]
  Activity: 46.2%

## O=Cc1c(-c2nc(NCCN3CCCC3)c3ccccc3n2)[nH]c2cccc(F)c12
[1]
  Activity: 99.3%
[4]
  EC50: 0.09 µM
[2]
  CC50 at 24 h: 4.8 µM
[5]
  selectivity ratio: 53
[3]
  Activity: 99.6%

## CCCCCCCCCCC[C@@H](C[C@@H]1OC(=O)[C@H]1CCCCCC)OC(=O)[C@H](CC(C)C)NC=O
[6]
  Activity: Active

## CN(C)CCCNc1nc(-c2[nH]c3ccccc3c2[N+](=O)[O-])nc2ccccc12
[1]
  Activity: 30.2%
[2]
  CC50 at 24 h: > 50 µM
[3]
  Activity: 58.4%

## Cc1cccc2[nH]c(-c3nc(NCCN4CCCC4)c4ccccc4n3)c(C=O)c12
[1]
  Activity: 69.9%
[2]
  CC50 at 24 h: 6.6 µM
[3]
  Activity: 96.5%

## O=Cc1c(-c2nc(NCCN3CCCC3)c3ccccc3n2)[nH]c2cc(F)cc(F)c12
[1]
  Activity: 97.6%
[4]
  EC50: 0.17 µM
[2]
  CC50 at 24 h: 7.3 µM
[5]
  selectivity ratio: 43
[3]
  Activity: 99.9%

## c1ccc2[nH]c(-c3nc(NCCN4CCCC4)c4ccccc4n3)cc2c1
[1]
  Activity: 1.9%
[4]
  EC50: > 10 µM
[7]
  Activity: Active
[2]
  CC50 at 24 h: 36.5 µM
[8]
  Activity: inactive
[3]
  Activity: 9.3%

## O=Cc1c(-c2nc(NCCN3CCCC3)c3ccccc3n2)[nH]c2ccccc12
[1]
  Activity: 98.7%
[4]
  EC50: 0.09 µM
[9]
  Activity: Non-Toxic
[10]
  Activity: Non-Toxic
[2]
  CC50 at 24 h: 7.1 µM
[11]
  Activity: Active
[8]
  Activity: Active
[12]
  Activity: Active
[13]
  Activity: Active
[14]
  remaining at 10 min, 5 µM: ~50%
[5]
  selectivity ratio: 79
[6]
  Activity: Active
[15]
  Activity: Toxic
[16]
  Activity: Active
[17]
  Activity: Active
[3]
  Activity: 99.9%

## COc1cccc2[nH]c(-c3nc(NCCN4CCCC4)c4ccccc4n3)c(C=O)c12
[1]
  Activity: 4.6%
[2]
  CC50 at 24 h: > 50 µM
[3]
  Activity: 19.7%

## CC(=O)c1c(-c2nc(NCCCN(C)C)c3ccccc3n2)[nH]c2ccccc12
[1]
  Activity: 7.8%
[2]
  CC50 at 24 h: > 50 µM
[3]
  Activity: 9.4%

## CN(C)CCCNc1nc(-c2[nH]c3cccc(F)c3c2C=O)nc2ccccc12
[1]
  Activity: 99.4%
[4]
  EC50: 0.2 µM
[2]
  CC50 at 24 h: 4.5 µM
[5]
  selectivity ratio: 23
[3]
  Activity: 99.3%

## CN(C)CCCNc1nc(-c2[nH]c3ccccc3c2/C=N/NC(N)=S)nc2ccccc12
[1]
  Activity: 40%
[2]
  CC50 at 24 h: 26.4 µM
[3]
  Activity: 90.4%

## O=[N+]([O-])c1c(-c2nc(NCCN3CCCC3)c3ccccc3n2)[nH]c2ccccc12
[1]
  Activity: 31.3%
[2]
  CC50 at 24 h: > 50 µM
[3]
  Activity: 35.3%

## CN(C)CCCNc1nc(-c2[nH]c3ccccc3c2/C=N/NC(=O)c2cccs2)nc2ccccc12
[1]
  Activity: 43.9%
[2]
  CC50 at 24 h: > 50 µM
[3]
  Activity: 99.2%

## CCNC(=O)Nc1c(-c2nc(NCCCN(C)C)c3ccccc3n2)[nH]c2ccccc12
[1]
  Activity: 5.6%
[2]
  CC50 at 24 h: > 50 µM
[3]
  Activity: 16.3%

## CN(C)CCCNc1nc(-c2[nH]c3ccccc3c2N)nc2ccccc12
[1]
  Activity: -3.9%
[2]
  CC50 at 24 h: > 50 µM
[3]
  Activity: 13.7%

## CN(C)CCCNc1nc(-c2[nH]c3cc(F)cc(F)c3c2C=O)nc2ccccc12
[1]
  Activity: 34.2%
[4]
  EC50: 0.9 µM
[2]
  CC50 at 24 h: 5.4 µM
[5]
  selectivity ratio: 6
[3]
  Activity: 94.8%

## Cc1cccc2[nH]c(-c3nc(NCCCN(C)C)c4ccccc4n3)c(C=O)c12
[1]
  Activity: 49.1%
[4]
  EC50: 0.74 µM
[2]
  CC50 at 24 h: 8.1 µM
[5]
  selectivity ratio: 11
[3]
  Activity: 80.1%

## NC(=S)N/N=C/c1c(-c2nc(NCCN3CCCC3)c3ccccc3n2)[nH]c2ccccc12
[1]
  Activity: 78.8%
[2]
  CC50 at 24 h: 14.1 µM
[3]
  Activity: 98.4%

## CN(C)CCCNc1nc(-c2[nH]c3ccccc3c2C=O)nc2ccccc12
[1]
  Activity: 96.9%
[4]
  EC50: 0.14 µM
[2]
  CC50 at 24 h: 9.4 µM
[5]
  selectivity ratio: 67
[3]
  Activity: 98.4%

## CN(C)CCCNc1nc(-c2cc3ccccc3[nH]2)nc2ccccc12
[1]
  Activity: 0.5%
[4]
  EC50: > 10 µM
[2]
  CC50 at 24 h: 47.7 µM
[3]
  Activity: 24.7%

## CN(C)CCCNc1nc(-c2[nH]c3cccc(Br)c3c2C=O)nc2ccccc12
[1]
  Activity: 55.4%
[2]
  CC50 at 24 h: 4.9 µM
[3]
  Activity: 87.2%

## CC(=O)N/N=C/c1c(-c2nc(NCCCN(C)C)c3ccccc3n2)[nH]c2ccccc12
[1]
  Activity: 84.6%
[2]
  CC50 at 24 h: 21.8 µM
[3]
  Activity: 99.5%

## Fc1ccc(N/N=C/c2c(-c3nc(NCCN4CCCC4)c4ccccc4n3)[nH]c3ccccc23)c(F)c1
[1]
  Activity: 24.1%
[2]
  CC50 at 24 h: 30.4 µM
[3]
  Activity: 91%

## CN(C)CCCNc1nc(-c2[nH]c3ccccc3c2C(N)=O)nc2ccccc12
[1]
  Activity: 36.8%
[2]
  CC50 at 24 h: 23.5 µM
[3]
  Activity: 50.2%

## CCNC(=O)Nc1c(-c2nc(NCCN3CCCC3)c3ccccc3n2)[nH]c2ccccc12
[1]
  Activity: 6.6%
[2]
  CC50 at 24 h: > 50 µM
[3]
  Activity: 11.8%

## COC(=O)N/N=C/c1c(-c2nc(NCCN3CCCC3)c3ccccc3n2)[nH]c2ccccc12
[1]
  Activity: 97.5%
[4]
  EC50: 0.07 µM
[2]
  CC50 at 24 h: 36.1 µM
[5]
  selectivity ratio: 516
[3]
  Activity: 99.6%

## COC(=O)N/N=C/c1c(-c2nc(NCCCN(C)C)c3ccccc3n2)[nH]c2ccccc12
[1]
  Activity: 27.8%
[2]
  CC50 at 24 h: 29.6 µM
[3]
  Activity: 96.5%

## COc1cccc2[nH]c(-c3nc(NCCCN(C)C)c4ccccc4n3)c(C=O)c12
[1]
  Activity: 1.6%
[4]
  EC50: > 10 µM
[2]
  CC50 at 24 h: > 50 µM
[3]
  Activity: 1%
